Patent publication US8492559B2, “Substituted indole compounds” (Gruenenthal GmbH, priority 2009, dated 2013)

biological target: T1, B1R receptor of the rat (rB1R) (Rattus norvegicus, UniProt P97583); assay: Functional investigation on the bradykinin 1 receptor (B1R), FLIPR Ca2+ assay, rB1R cells; type: cell-based; details: 10 μM test substance; CHO K1 cells with rat B1R; agonist Des-Arg9 bradykinin; % of maximum achievable inhibition; 10 µM
T1 construct: expressed in transfected cells; host or cells: CHO K1 cells
T1 sequence (P97583 1-337): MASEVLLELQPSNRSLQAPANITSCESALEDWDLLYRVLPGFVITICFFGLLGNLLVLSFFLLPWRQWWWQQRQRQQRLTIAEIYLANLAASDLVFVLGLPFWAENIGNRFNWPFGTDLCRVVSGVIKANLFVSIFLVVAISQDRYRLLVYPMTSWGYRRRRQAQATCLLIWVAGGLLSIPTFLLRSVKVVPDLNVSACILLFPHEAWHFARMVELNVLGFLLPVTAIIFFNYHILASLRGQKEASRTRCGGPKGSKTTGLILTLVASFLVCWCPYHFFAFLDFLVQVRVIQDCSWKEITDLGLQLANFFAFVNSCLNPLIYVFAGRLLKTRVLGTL
Summary of the method: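 Cells plated at 20,000-35,000/well, incubated overnight at 37° C, loaded with Fluo-4 (2.13 μM, 60 min, 37° C, or 2.5 μM in buffer A), then read in FLIPR (λex 488, λem 540 nm). Agonist: Lys-Des-[MUT] bradykinin (0.5 nM) or Des-[MUT] bradykinin (100 nM). IC50 from % inhibition versus maximum, n=2-3, N>=2.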

Question: For O=C(CCn1ccc2ccc(N3Cc4cccc(Cl)c4C3=O)cc21)N1CCC2(CC1)CCN(c1ccncc1)CC2 [G_CC-67, 7-Chloro-2-[1-[3-oxo-3-(3-pyridin-4-yl-3,9-diazaspiro[5.5]undecan-9-yl)-propyl]-1H-indol-6-yl]-2,3-dihydro-isoindol-1-one], which “B1R antagonism, rat [10 μM] % inhibition” value is on record?
Answer: 95%

same assay, conditions: CHO-K1, 10 μM test substance; CHO K1 cells with rat B1R; agonist Des-Arg9 bradykinin; % of maximum achievable inhibition; read-out: B1R antagonism, rat [10 μM] % inhibition

Question: How did the inhibition at 10 µM turn out when O=C(Cn1ccc2ccc(N3CCn4ccc(Cl)c4C3=O)cc21)N1CCC2(CC1)CCN(c1ccncc1)CC2 [Compound G-33, 8-Chloro-2-[1-[2-oxo-2-(9-pyridin-4-yl-3,9-diazaspiro[5.5]undecan-3-yl)-ethyl]-1H-indol-6-yl]-3,4-dihydro-2H-pyrrolo[1,2-a]pyrazin-1-one] was run?
Answer: 46%

Question: For COc1cc(C)c(S(=O)(=O)Nc2ccc3ccn(CC(=O)N4CCC(N5CCN(C)CC5)CC4)c3c2)c(C)c1 [G_CC-2, 4-Methoxy-2,6-dimethyl-N-[1-[2-[4-(4-methyl-piperazin-1-yl)-piperidin-1-yl]-2-oxo-ethyl]-1H-indol-6-yl]-benzenesulfonic acid amide], which inhibition at 10 µM is on record?
Answer: 70%

Question: Cc1cc(S(=O)(=O)Nc2ccc3ccn(CC(=O)N4CCN(CC5CCN(C)CC5)CC4)c3c2)c(C)cc1Cl [G_CC-8, 4-Chloro-2,5-dimethyl-N-[1-[2-[4-[(1-methyl-piperidin-4-yl)-methyl]-piperazin-1-yl]-2-oxo-ethyl]-1H-indol-6-yl]-benzenesulfonic acid amide] was tested. Which inhibition at 10 µM did it give?
Answer: 100%

Question: Which inhibition at 10 µM does the source give for COc1cc(C)c(S(=O)(=O)Nc2cccc3ccn(CC(=O)N4CCC5(CC4)CCN(Cc4ccccc4)C5=O)c23)c(C)c1 [G_CC-32, N-[1-[2-(3-Benzyl-4-oxo-3,8-diazaspiro[4.5]decan-8-yl)-2-oxo-ethyl]-1H-indol-7-yl]-4-methoxy-2,6-dimethyl-benzenesulfonic acid amide] here?
Answer: 101%

Question: With COc1cc(C)c(S(=O)(=O)Nc2cccc3ccn(CCC(=O)N4CCN(CC5CCN(C)CC5)CC4)c23)c(C)c1 [G_CC-43, 4-Methoxy-2,6-dimethyl-N-[1-[3-[4-[(1-methyl-piperidin-4-yl)-methyl]-piperazin-1-yl]-3-oxo-propyl]-1H-indol-7-yl]-benzenesulfonic acid amide] as the compound, how does the inhibition at 10 µM read?
Answer: 103%

Question: Which inhibition at 10 µM does the source give for COc1cc(C)c(S(=O)(=O)Nc2cccc3ccn(CCC(=O)NCCC4CCN(c5ccncc5)CC4)c23)c(C)c1 [G_CC-47, 3-[7-[[(4-Methoxy-2,6-dimethyl-phenyl)sulfonyl]amino]-1H-indol-1-yl]-N-[2-(1-pyridin-4-yl-piperidin-4-yl)-ethyl]-propionamide] here?
Answer: 102%

Question: For COc1cc(C)c(S(=O)(=O)Nc2cccc3ccn(CCC(=O)N4CCC5(CC4)CCN(c4ccncc4)CC5)c23)c(C)c1 [G_CC-54, 4-Methoxy-2,6-dimethyl-N-[1-[3-oxo-3-(3-pyridin-4-yl-3,9-diazaspiro[5.5]undecan-9-yl)-propyl]-1H-indol-7-yl]-benzenesulfonic acid amide], which inhibition at 10 µM is on record?
Answer: 96%

Question: With Cc1cc(S(=O)(=O)Nc2cccc3ccn(CCC(=O)N4CCN(CC5CCN(C)CC5)CC4)c23)c(C)cc1Cl [G_CC-62, 4-Chloro-2,5-dimethyl-N-[1-[3-[4-[(1-methyl-piperidin-4-yl)-methyl]-piperazin-1-yl]-3-oxo-propyl]-1H-indol-7-yl]-benzenesulfonic acid amide] as the compound, how does the inhibition at 10 µM read?
Answer: 99%

Question: With COc1cc(C)c(S(=O)(=O)Nc2ccc3ccn(CC(=O)N(C)CCCN4CCN(c5ccncc5)CC4)c3c2)c(C)c1 [G_CC-76, 2-[6-[[(4-Methoxy-2,6-dimethyl-phenyl)sulfonyl]amino]-1H-indol-1-yl]-N-methyl-N-[3-(4-pyridin-4-yl-piperazin-1-yl)-propyl]-acetamide] as the compound, how does the inhibition at 10 µM read?
Answer: 104%

Question: With COc1cc(C)c(S(=O)(=O)Nc2cccc3ccn(CC(=O)N(C)CCCN4CCN(c5ccncc5)CC4)c23)c(C)c1 [G_CC-88, 2-[7-[[(4-Methoxy-2,6-dimethyl-phenyl)sulfonyl]amino]-1H-indol-1-yl]-N-methyl-N-[3-(4-pyridin-4-yl-piperazin-1-yl)-propyl]-acetamide] as the compound, how does the inhibition at 10 µM read?
Answer: 101%

Question: With COc1cc(C)c(S(=O)(=O)Nc2cccc3ccn(CC(=O)N4CCC5(CC4)CCN(c4ccncc4)CC5)c23)c(C)c1 [G_CC-91, 4-Methoxy-2,6-dimethyl-N-[1-[2-oxo-2-(3-pyridin-4-yl-3,9-diazaspiro-[5.5]undecan-9-yl)-ethyl]-1H-indol-7-yl]-benzenesulfonic acid amide] as the compound, how does the inhibition at 10 µM read?
Answer: 100%
